The values below come from patent US8148391B2 (Cephalon, Inc., priority 2006, dated 2012).

Assay [1] has as its target T1, baculovirus-expressed ALK (Homo sapiens, UniProt Q9UM73).
T1 construct: host or cells: baculovirus expression system
The experiment in a line: ALK Kinase Assay (ELISA-type, time-resolved fluorescence). It is filed as biochemical. The following applies: ALK kinase inhibition, 1 μM ATP; read-out: ALK Activity. Put shortly: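 Substrate coating: phospholipase C-γ, 10 μg/mL in TBS. Kinase step: 30 ng/ml ALK, 15 min, 37° C. Detection and analysis: Eu-N1 PT66 antibody, with IC50 fitted as a sigmoidal variable-slope dose-response curve.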
(An ELISA detects its analyte on a solid surface through an enzyme-linked reagent.)

Assay [2] concerns the target T2, c-Met (cytoplasmic domain) (Homo sapiens, UniProt P08581).
T2 construct: 10 ng/mL c-Met (cytoplasmic domain, Invitrogen Corporation #PV3143); purchased Invitrogen Corporation PV3143
Put plainly: c-Met Kinase Assay (same methods as for ALK, with modifications). It is filed as biochemical. The settings on record: c-Met kinase inhibition, 1 μM ATP; read-out: cMet Activity. Summed up:
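Wells were coated with 10 μg/mL phospholipase C-γ substrate in TBS, and reactions were started with 10 ng/mL c-Met cytoplasmic domain and run at 37° C for 15 minutes. Phosphorylated product was detected with Eu-N1-labeled PT66 antibody. IC50 values came from sigmoidal variable-slope fits of percent inhibition versus log compound concentration.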

T1 sequence (Q9UM73 19-1620): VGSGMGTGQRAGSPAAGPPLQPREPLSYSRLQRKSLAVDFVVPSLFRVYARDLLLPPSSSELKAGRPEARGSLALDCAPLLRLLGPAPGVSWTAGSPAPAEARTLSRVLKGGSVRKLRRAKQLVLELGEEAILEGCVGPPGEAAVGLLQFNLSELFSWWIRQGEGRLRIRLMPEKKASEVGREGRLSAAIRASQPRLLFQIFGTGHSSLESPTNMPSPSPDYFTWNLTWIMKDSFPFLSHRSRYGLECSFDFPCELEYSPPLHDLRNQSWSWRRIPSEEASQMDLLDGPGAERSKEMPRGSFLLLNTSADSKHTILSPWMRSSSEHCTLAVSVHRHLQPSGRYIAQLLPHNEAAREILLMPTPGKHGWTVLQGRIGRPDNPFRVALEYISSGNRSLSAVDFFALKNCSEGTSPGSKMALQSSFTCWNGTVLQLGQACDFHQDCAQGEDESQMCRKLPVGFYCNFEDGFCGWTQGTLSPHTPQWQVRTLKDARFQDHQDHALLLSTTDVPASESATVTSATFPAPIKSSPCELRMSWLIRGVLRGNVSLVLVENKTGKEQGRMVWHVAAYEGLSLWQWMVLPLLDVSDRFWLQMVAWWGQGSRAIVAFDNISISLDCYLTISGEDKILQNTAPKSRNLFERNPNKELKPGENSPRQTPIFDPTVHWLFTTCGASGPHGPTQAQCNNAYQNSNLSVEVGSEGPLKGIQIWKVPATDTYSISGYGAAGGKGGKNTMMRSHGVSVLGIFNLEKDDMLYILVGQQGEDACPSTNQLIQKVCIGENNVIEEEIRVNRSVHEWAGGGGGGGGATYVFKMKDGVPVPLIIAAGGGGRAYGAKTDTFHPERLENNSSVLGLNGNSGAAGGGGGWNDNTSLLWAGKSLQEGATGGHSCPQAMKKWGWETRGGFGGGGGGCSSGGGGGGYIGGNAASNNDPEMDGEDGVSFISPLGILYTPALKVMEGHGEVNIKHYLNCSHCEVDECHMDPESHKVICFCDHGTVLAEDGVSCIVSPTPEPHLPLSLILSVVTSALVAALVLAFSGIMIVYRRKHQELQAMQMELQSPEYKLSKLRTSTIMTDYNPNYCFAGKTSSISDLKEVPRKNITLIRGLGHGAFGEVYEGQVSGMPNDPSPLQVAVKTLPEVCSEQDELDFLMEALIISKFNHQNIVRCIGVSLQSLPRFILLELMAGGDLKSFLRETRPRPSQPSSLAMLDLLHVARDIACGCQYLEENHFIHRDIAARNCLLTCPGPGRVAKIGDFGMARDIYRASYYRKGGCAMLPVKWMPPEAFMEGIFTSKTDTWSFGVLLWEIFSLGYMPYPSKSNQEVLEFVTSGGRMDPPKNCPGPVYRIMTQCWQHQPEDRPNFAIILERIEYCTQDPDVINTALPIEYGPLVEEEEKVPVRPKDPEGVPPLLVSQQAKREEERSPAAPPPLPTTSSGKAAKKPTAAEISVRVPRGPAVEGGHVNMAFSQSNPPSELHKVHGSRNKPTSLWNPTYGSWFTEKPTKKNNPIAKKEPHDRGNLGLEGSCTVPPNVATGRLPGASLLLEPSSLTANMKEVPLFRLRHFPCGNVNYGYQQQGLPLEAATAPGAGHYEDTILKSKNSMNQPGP
T2 sequence (P08581 956-1390 limits assumed): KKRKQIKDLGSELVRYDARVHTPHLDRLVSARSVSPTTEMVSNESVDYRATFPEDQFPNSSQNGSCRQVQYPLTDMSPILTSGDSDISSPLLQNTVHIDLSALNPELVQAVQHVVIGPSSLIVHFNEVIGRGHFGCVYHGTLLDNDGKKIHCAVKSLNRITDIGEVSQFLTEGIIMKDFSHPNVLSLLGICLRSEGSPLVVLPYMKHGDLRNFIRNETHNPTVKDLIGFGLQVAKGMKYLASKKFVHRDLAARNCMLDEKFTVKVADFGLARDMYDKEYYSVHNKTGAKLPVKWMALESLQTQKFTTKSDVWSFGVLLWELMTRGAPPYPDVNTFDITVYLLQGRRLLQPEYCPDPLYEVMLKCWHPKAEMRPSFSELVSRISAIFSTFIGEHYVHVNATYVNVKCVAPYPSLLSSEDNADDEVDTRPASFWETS

Consider `CCN1C(=O)OCCc2cc(Nc3ncc(Cl)c(Nc4c(F)cccc4C(=O)NC)n3)ccc21` [Example 1746, 2-[5-chloro-2-(5-ethyl-6-oxo-5,6,8,9-tetrahydro-7-oxa-5-aza-benzocyclohepten-2-ylamino)-pyrimidin-4-ylamino]-3-fluoro-N-methyl-benzamide], for which the IC50 in assay [1] and in assay [2] was less than 100 nM in each case.
For the compound `CNC(=O)c1sccc1Nc1nc(Nc2ccc3c(c2)CCOC(=O)N3C)ncc1Cl` [Example 1747, 3-[5-Chloro-2-(5-methyl-6-oxo-5,6,8,9-tetrahydro-7-oxa-5-aza-benzocyclohepten-2-ylamino)-pyrimidin-4-ylamino]-thiophene-2-carboxylic acid methylamide], the IC50 in assay [1] is 100 to 1000 nM; in assay [2], less than 100 nM.
`CN1C(=O)OCCc2cc(Nc3ncc(Cl)c(Nc4ccccc4OCC#N)n3)ccc21` [Example 1748, {2-[5-chloro-2-(5-methyl-6-oxo-5,6,8,9-tetrahydro-7-oxa-5-aza-benzocyclohepten-2-ylamino)-pyrimidin-4-ylamino]-phenoxy}-acetonitrile]: the IC50 in assay [1] and in assay [2] was less than 100 nM throughout.
`CN1C(=O)OCCc2cc(Nc3ncc(Cl)c(Nc4ccccc4-c4nccn4C)n3)ccc21` [Example 1749, 2-{5-chloro-4-[2-(1-methyl-1H-imidazol-2-yl)-phenylamino]-pyrimidin-2-ylamino}-5-methyl-8,9-dihydro-5H-7-oxa-5-aza-benzocyclohepten-6-one]: the figures for the IC50 in assay [1] and in assay [2] were less than 100 nM and 100 to 1000 nM, respectively.
The like results for `CNC(=O)c1cc(C)cc(C)c1Nc1nc(Nc2ccc3c(c2)CCOC(=O)N3C)ncc1Cl` [Example 1750, 2-[5-Chloro-2-(5-methyl-6-oxo-5,6,8,9-tetrahydro-7-oxa-5-aza-benzocyclohepten-2-ylamino)-pyrimidin-4-ylamino]-3,5,N-trimethyl-benzamide] were, in that order, 1000 to 10000 nM and less than 100 nM.
The like results for `CNC(=O)c1cccc(Br)c1Nc1nc(Nc2ccc3c(c2)CCOC(=O)N3C)ncc1Cl` [Example 1751, 3-Bromo-2-[5-chloro-2-(5-methyl-6-oxo-5,6,8,9-tetrahydro-7-oxa-5-aza-benzocyclohepten-2-ylamino)-pyrimidin-4-ylamino]-N-methyl-benzamide] were, in that order, 1000 to 10000 nM and less than 100 nM.
On the same counts, the results for `CNC(=O)c1cc(F)ccc1Nc1nc(Nc2ccc3c(c2)CCOC(=O)N3C)ncc1Cl` [Example 1752, 2-[5-Chloro-2-(5-methyl-6-oxo-5,6,8,9-tetrahydro-7-oxa-5-aza-benzocyclohepten-2-ylamino)-pyrimidin-4-ylamino]-5-fluoro-N-methyl-benzamide] are less than 100 nM and less than 100 nM.
Regarding `CNC(=O)c1cccc(C(F)(F)F)c1Nc1nc(Nc2ccc3c(c2)CCOC(=O)N3C)ncc1Cl` [Example 1753, 2-[5-Chloro-2-(5-methyl-6-oxo-5,6,8,9-tetrahydro-7-oxa-5-aza-benzocyclohepten-2-ylamino)-pyrimidin-4-ylamino]-N-methyl-3-trifluoromethyl-benzamide], the IC50 was greater than 10000 nM in assay [1] and 100 to 1000 nM in assay [2].
The like results for `CNC(=O)c1ccc(C(F)(F)F)cc1Nc1nc(Nc2ccc3c(c2)CCOC(=O)N3C)ncc1Cl` [Example 1754, 2-[5-Chloro-2-(5-methyl-6-oxo-5,6,8,9-tetrahydro-7-oxa-5-aza-benzocyclohepten-2-ylamino)-pyrimidin-4-ylamino]-N-methyl-4-trifluoromethyl-benzamide] were, in that order, 100 to 1000 nM and 100 to 1000 nM.
With `CNC(=O)c1c(C)cccc1Nc1nc(Nc2ccc3c(c2)CCOC(=O)N3C)ncc1Cl` [Example 1755, 2-[5-Chloro-2-(5-methyl-6-oxo-5,6,8,9-tetrahydro-7-oxa-5-aza-benzocyclohepten-2-ylamino)-pyrimidin-4-ylamino]-6,N-dimethyl-benzamide], the IC50 in assay [1] and in assay [2] was 100 to 1000 nM in each case.
For the compound `CNC(=O)c1c(F)cccc1Nc1nc(Nc2ccc3c(c2)CCOC(=O)N3C)ncc1Cl` [Example 1756, 2-[5-Chloro-2-(5-methyl-6-oxo-5,6,8,9-tetrahydro-7-oxa-5-aza-benzocyclohepten-2-ylamino)-pyrimidin-4-ylamino]-6-fluoro-N-methyl-benzamide], the IC50 in assay [1] and in assay [2] was less than 100 nM throughout.
As for `CNC(=O)c1ccc(Cl)c(Cl)c1Nc1nc(Nc2ccc3c(c2)CCOC(=O)N3C)ncc1Cl` [Example 1757, 3,4-Dichloro-2-[5-chloro-2-(5-methyl-6-oxo-5,6,8,9-tetrahydro-7-oxa-5-aza-benzocyclohepten-2-ylamino)-pyrimidin-4-ylamino]-N-methyl-benzamide], the IC50 in assay [1] was 100 to 1000 nM; in assay [2], less than 100 nM.
On the same counts, the results for `CNC(=O)c1cc(F)cc(Cl)c1Nc1nc(Nc2ccc3c(c2)CCOC(=O)N3C)ncc1Cl` [Example 1758, 3-Chloro-2-[5-chloro-2-(5-methyl-6-oxo-5,6,8,9-tetrahydro-7-oxa-5-aza-benzocyclohepten-2-ylamino)-pyrimidin-4-ylamino]-5-fluoro-N-methyl-benzamide] are 1000 to 10000 nM and less than 100 nM.
On to `CNC(=O)c1scc(C)c1Nc1nc(Nc2ccc3c(c2)CCOC(=O)N3C)ncc1Cl` [Example 1759, 3-[5-Chloro-2-(5-methyl-6-oxo-5,6,8,9-tetrahydro-7-oxa-5-aza-benzocyclohepten-2-ylamino)-pyrimidin-4-ylamino]-4-methyl-thiophene-2-carboxylic acid methylamide], for which the values for the IC50 in assay [1] and in assay [2] were 1000 to 10000 nM and less than 100 nM, respectively.
On to `C#CCNC(=O)c1sccc1Nc1nc(Nc2ccc3c(c2)CCOC(=O)N3C)ncc1Cl` [Example 1760, 3-[5-Chloro-2-(5-methyl-6-oxo-5,6,8,9-tetrahydro-7-oxa-5-aza-benzocyclohepten-2-ylamino)-pyrimidin-4-ylamino]-thiophene-2-carboxylic acid prop-2-ynylamide], for which the results for the IC50 in assay [1] and in assay [2] were 100 to 1000 nM and less than 100 nM, respectively.
The like results for `CNC(=O)c1sc(C(C)(C)C)cc1Nc1nc(Nc2ccc3c(c2)CCOC(=O)N3C)ncc1Cl` [Example 1761, 5-tert-Butyl-3-[5-chloro-2-(5-methyl-6-oxo-5,6,8,9-tetrahydro-7-oxa-5-aza-benzocyclohepten-2-ylamino)-pyrimidin-4-ylamino]-thiophene-2-carboxylic acid methylamide] were, in that order, 1000 to 10000 nM and 1000 to 10000 nM.
The like results for `COC(=O)c1sc(-c2ccccc2)c(C)c1Nc1nc(Nc2ccc3c(c2)CCOC(=O)N3C)ncc1Cl` [Example 1762, 3-[5-Chloro-2-(5-methyl-6-oxo-5,6,8,9-tetrahydro-7-oxa-5-aza-benzocyclohepten-2-ylamino)-pyrimidin-4-ylamino]-4-methyl-5-phenyl-thiophene-2-carboxylic acid methyl ester] were, in that order, greater than 10000 nM and greater than 10000 nM.
On the same counts, the results for `CC(C)[C@@H](Nc1nc(Nc2ccc3c(c2)CCOC(=O)N3C)ncc1Cl)C(N)=O` [Example 1763, (R)-2-[5-Chloro-2-(5-methyl-6-oxo-5,6,8,9-tetrahydro-7-oxa-5-aza-benzocyclohepten-2-ylamino)-pyrimidin-4-ylamino]-3-methyl-butyramide] are 1000 to 10000 nM and 1000 to 10000 nM.
As to `CC(C)[C@H](Nc1nc(Nc2ccc3c(c2)CCOC(=O)N3C)ncc1Cl)C(N)=O` [Example 1764, (S)-2-[5-chloro-2-(5-methyl-6-oxo-5,6,8,9-tetrahydro-7-oxa-5-aza-benzocyclohepten-2-ylamino)-pyrimidin-4-ylamino]-3-methyl-butyramide], the IC50 in assay [1] is 1000 to 10000 nM; in assay [2], greater than 10000 nM.
On the same counts, the results for `CNC(=O)c1ccccc1N(C)c1nc(Nc2ccc3c(c2)CCOC(=O)N3C)ncc1F` [Example 1765, 2-{[5-Fluoro-2-(5-methyl-6-oxo-5,6,8,9-tetrahydro-7-oxa-5-aza-benzocyclohepten-2-ylamino)-pyrimidin-4-yl]-methyl-amino}-N-methyl-benzamide] are greater than 10000 nM and 1000 to 10000 nM.
On the same counts, the results for `CN1C(=O)OCCc2cc(Nc3ncc(Cl)c(Nc4ccccc4-n4cccn4)n3)ccc21` [Example 1766, 2-[5-Chloro-4-(2-pyrazol-1-yl-phenylamino)-pyrimidin-2-ylamino]-5-methyl-8,9-dihydro-5H-7-oxa-5-aza-benzocyclohepten-6-one] are less than 100 nM and 100 to 1000 nM.
The like results for `CN1C(=O)OCCc2cc(Nc3ncc(Cl)c(Nc4ccccc4-c4cc[nH]n4)n3)ccc21` [Example 1767, 2-{5-Chloro-4-[2-(1H-pyrazol-3-yl)-phenylamino]-pyrimidin-2-ylamino}-5-methyl-8,9-dihydro-5H-7-oxa-5-aza-benzocyclohepten-6-one] were, in that order, greater than 10000 nM and 1000 to 10000 nM.
Regarding `CN1C(=O)OCCc2cc(Nc3ncc(Cl)c(Nc4cccc5c4OC(F)(F)O5)n3)ccc21` [Example 1768, 2-[5-Chloro-4-(2,2-difluoro-benzo[1,3]dioxol-4-ylamino)-pyrimidin-2-ylamino]-5-methyl-8,9-dihydro-5H-7-oxa-5-aza-benzocyclohepten-6-one], the IC50 in assay [1] is 100 to 1000 nM; in assay [2] it was 1000 to 10000 nM.
On the same counts, the results for `CN1C(=O)OCCc2cc(Nc3ncc(Cl)c(Nc4cccc5[nH]ncc45)n3)ccc21` [Example 1769, 2-[5-Chloro-4-(1H-indazol-4-ylamino)-pyrimidin-2-ylamino]-5-methyl-8,9-dihydro-5H-7-oxa-5-aza-benzocyclohepten-6-one] are 100 to 1000 nM and 100 to 1000 nM.
